Measurements published in PMC10412636, “An analysis of interactions between three structurally diverse anthocyanidins, as well as their glucosides, and model biological membranes, albumin, and plasmid DNA” (Scientific Reports, 2023).

Legend:
[1] = MC540 probe fluorescence intensity in RBCM liposomes; set-up: species or system human; settings: 37 °C, positive = decrease
Description: (§1) Two types of liposomes were used to study interactions with biological membranes: liposomes mimicking the composition of cancer cell membranes (mimic membrane liposome—MM) and liposomes formed from lipids extracted from human blood erythrocyte membranes (red blood cell membrane liposome—RBCM). […] Both lipids, dissolved in chloroform (MM liposome) and n-decane (RBCM liposome), were evaporated under a nitrogen atmosphere, and then dried in a desiccator for 90 min under a vacuum. The obtained dry lipid film was hydrated in phosphate buffer, pH 7.4, obtaining a concentration of 0.1 mg/ml, and then vortexed for one minute until a homogeneous, milky suspension was observed. The mixture was sonicated (Sonic, Milano, Italia) for 15 min keeping the sample in a bath of ice water, thus providing a cooling temperature of 0 °C. The suspension was then processed (extrusion) through polycarbonate filters with pore diameters of 100 and 200 nm using a Lipex extruder (Evonik). Liposomes, which had been prepared according to this procedure, was used in fluorimetric studies.
(§2) To investigate these properties three fluorescent probes were used: MC540, TMA-DPH, and DPH. MC540 localizes to the outer, hydrophilic part of the membrane, within the region of the glycerol skeleton[44]. Changes in the fluorescence intensity of this probe were formulated as the relative change in intensity to the control as a function of anthocyanins concentration. The TMA-DPH and DPH probes are supposed to locate nearer to the interface and in the hydrophobic region, respectively[45]. The measurement of changes in the anisotropy of the TMA-DPH and DPH probes allowed us to reflect the mobility of the fluorescent probes in the membrane, and therefore to determine the fluidity of the bilayer[46]. Fluorescence anisotropy was calculated using the formula[47]:1 A=I‖-GI⊥/I‖+2GI⊥ where I‖ and I⊥ are the intensity of fluorescence in parallel and perpendicular directions, to the plane of polarization of the excitation wave, respectively. G is an apparatus constant that depends on the emission wavelength.
(§3) Liposomes (the concentration of lipids in the sample was 0.1 mg/ml) were incubated for 30 min with the appropriate probe (dissolved in DMF, 1 µM concentration), and then the tested anthocyanins were added (final concentration of 1 to 30 µM). The control sample consisted of liposomes and a fluorescent probe. Fluorescence was measured on a fluorimeter (Cary Eclipse, Varian, San Diego, USA) at 37 °C. The excitation wavelengths λex and emission wavelengths λem respectively: MC540—λexc = 540 nm, λem = 590 nm; DPH—λexc = 360 nm, λem = 425 nm. nm; TMA-DPH—λexc = 340 nm, λem = 430 nm.

[2] = TMA-DPH probe fluorescence anisotropy in MM liposomes; settings: negative = increase in anisotropy
Description: as §1, §2, §3

[3] = target: human serum albumin (HSA) (Homo sapiens, UniProt P02768); experiment: Quenching of natural fluorescence of human serum albumin; format: binding; settings: HSA […] 10^–5 M, 37 °C
Sequence of human serum albumin (HSA) (P02768 25-609): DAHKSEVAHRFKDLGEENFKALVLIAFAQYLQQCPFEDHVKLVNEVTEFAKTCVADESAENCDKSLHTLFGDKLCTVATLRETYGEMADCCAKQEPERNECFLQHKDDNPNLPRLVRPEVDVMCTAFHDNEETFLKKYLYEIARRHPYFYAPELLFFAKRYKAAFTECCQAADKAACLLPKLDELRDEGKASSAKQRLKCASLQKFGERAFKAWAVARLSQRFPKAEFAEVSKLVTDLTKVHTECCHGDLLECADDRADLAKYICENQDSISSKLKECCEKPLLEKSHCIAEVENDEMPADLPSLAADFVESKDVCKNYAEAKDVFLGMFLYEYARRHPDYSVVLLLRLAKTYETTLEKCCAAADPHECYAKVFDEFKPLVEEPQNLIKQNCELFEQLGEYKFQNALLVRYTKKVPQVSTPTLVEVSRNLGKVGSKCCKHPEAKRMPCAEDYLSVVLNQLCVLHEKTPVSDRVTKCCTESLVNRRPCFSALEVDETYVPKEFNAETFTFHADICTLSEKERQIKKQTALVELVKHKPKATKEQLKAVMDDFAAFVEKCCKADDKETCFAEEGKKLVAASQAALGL
Description: The phenomenon of quenching the natural fluorescence of human serum albumin (HSA) was used to investigate the potential interaction of anthocyanins with this protein. […] Anthocyanins with concentrations ranging from 1 to 30 µM were added to HSA dissolved in phosphate buffer (1.5 × 10^–5 M) and then incubated at 37 °C for 20 min. Emission spectra were performed on a fluorimeter Cary Eclipse (Varian, San Diego, USA) at 37 °C. HSA fluorescence was excited with a wavelength of λ = 280 nm, the emission was measured in the range from 286 to 460 nm, and the fluorescence intensity was read at 345 nm where the emission maximum of HSA was located.
The Stern–Volmer equation was used to thoroughly describe the quenching mechanism of natural fluorescence and to determine the bindings parameters of HSA: anthocyanin complexes:4 F0/F=1+Kqτ0Q=1+KSV[Q] where F0—fluorescence intensity in the absence of anthocyanins (control sample), F—fluorescence intensity in the presence of anthocyanins, KSV—Stern–Volmer quenching constant (KSV = Kq·τ0), [Q]—concentration of quencher (tested compound), Kq—bimolecular quenching constant, τ0—a lifetime of the fluorophore in the absence of quencher the fluorescence lifetime of a biopolymer is calculated as 5 × 10^–9 s[51].
The apparent binding constants (Kb) and the number of binding sites (n) can be calculated using the following equation:5 log(F0-F/F]=logKb+nlog[Q]
F0 and F are the fluorescence intensities before and after the addition of the quencher. From the linear plot of log (F0 − F)/F versus log [Q], the value of Kb was obtained from the intercept.

[4] = DPH fluorescence quenching, dissociation constant with RBCM liposome membrane; format: binding, human; settings: 37 °C
Description: as §1
(§4) The phenomenon of quenching the fluorescence of the DPH probe by biologically active substances enabled us to evaluate the partition coefficient (Kd, dissociation constant) of anthocyanins with both MM and RBCM liposome membranes. For this purpose, changes in the fluorescence intensity of this probe were checked and the coefficient was calculated using the equation[48]:2 1/F0/F-1=Kd/[liposomes]×1/[anthocyanins]+1/liposomes where F0—fluorescence intensity in the absence of anthocyanins (control sample), F—fluorescence intensity in the presence of anthocyanins, [liposomes]—concentration of liposomes in mg/ml, [anthocyanins]—concentration of anthocyanins tested mg/ml.
as §3

[5] = MC540 probe fluorescence intensity in MM liposomes; settings: 37 °C, positive = decrease
Description: as §1, §2, §3

[6] = test system: pHbApr-1-Neo plasmid DNA; experiment: TCSPC-FCS of PicoGreen-labelled plasmid DNA with anthocyanins; format: binding
Description: To evaluate the biological interaction with DNA molecules the anthocyanins were initially dissolved in ETOH (1 mM). […] Mixing of such solutions with the aqueous DNA solutions used in the studies never exceeded 1% concentration ETOH (v/v) in the final solution. The DNA plasmid was labelled by PicoGreen (CPicoGreen/CDNAbp = 0.02)[52]. The pHbApr-1-Neo plasmid (10 kbp and contour length 3.4 µm) was a generous gift from the laboratory of Prof. Maciej Ugorski (Department of Biochemistry and Molecular Biology, Wrocław University of Environmental and Life Sciences Wroclaw, Poland). PicoGreen-labelled DNA samples mixed with the appropriate amount of anthocyanins were left overnight and then measured. The increasing concentration of anthocyanins in the tested samples was expressed as the ratio of the molar concentration of anthocyanins per molar concentration of DNA base pairs in a given sample (comp/bp). The 100 µl samples were measured in Ibidi 8-well chambers. Each point on the graph is a single sample (average of 10 measurements). All measurements were performed at room temperature (25 °C). Time-correlated single-photon counting fluorescence correlation spectroscopy (TCSPC-FCS) was used to study the interaction of plasmid DNA at the single molecule level with all tested anthocyanins. […] Low power of 1uW (at the back aperture of the objective) was chosen to minimize photobleaching and saturation. In the detection plane, a pinhole (50um in diameter) was used and the signal was collected by a single photon avalanche diode (SPAD, Microphoton Devices, Bolzano, Italy). Photon arrival times were stored using fast electronics (Picoharp 300, PicoQuant) in time-tagged time-resolved recording mode. Two independent times were assigned to each detected photon: (1) a time after the beginning of the measurement and (2) a time after the previous laser pulse. The FCS data analysis was done using home-built routines (DevC++, Bloodshed Software and OriginPro70, OriginLab Corporation). The TCSPC data analysis was performed using SymPhoTime software (PicoQuant). Further details of the data evaluation are given elsewhere.

[7] = DPH probe fluorescence anisotropy in RBCM liposomes; set-up: species or system human; settings: RBCM, negative = increase in anisotropy
Description: as §1, §2, §3

[8] = DPH probe fluorescence anisotropy in MM liposomes; settings: MM, negative = increase in anisotropy
Description: as §1, §2, §3

[9] = TMA-DPH probe fluorescence anisotropy in RBCM liposomes; set-up: species or system human; settings: negative = increase in anisotropy
Description: Two types of liposomes were used to study interactions with biological membranes: liposomes mimicking the composition of cancer cell membranes (mimic membrane liposome—MM) and liposomes formed from lipids extracted from human blood erythrocyte membranes (red blood cell membrane liposome—RBCM). […] The RBCM liposome was according to the methodology described previously[42] with minor modifications[43]. Both lipids, dissolved in chloroform (MM liposome) and n-decane (RBCM liposome), were evaporated under a nitrogen atmosphere, and then dried in a desiccator for 90 min under a vacuum. The obtained dry lipid film was hydrated in phosphate buffer, pH 7.4, obtaining a concentration of 0.1 mg/ml, and then vortexed for one minute until a homogeneous, milky suspension was observed. The mixture was sonicated (Sonic, Milano, Italia) for 15 min keeping the sample in a bath of ice water, thus providing a cooling temperature of 0 °C. The suspension was then processed (extrusion) through polycarbonate filters with pore diameters of 100 and 200 nm using a Lipex extruder (Evonik). Liposomes, which had been prepared according to this procedure, was used in fluorimetric studies.
To investigate these properties three fluorescent probes were used: MC540, TMA-DPH, and DPH. MC540 localizes to the outer, hydrophilic part of the membrane, within the region of the glycerol skeleton[44]. […] The TMA-DPH and DPH probes are supposed to locate nearer to the interface and in the hydrophobic region, respectively[45]. The measurement of changes in the anisotropy of the TMA-DPH and DPH probes allowed us to reflect the mobility of the fluorescent probes in the membrane, and therefore to determine the fluidity of the bilayer[46]. Fluorescence anisotropy was calculated using the formula[47]:1 A=I‖-GI⊥/I‖+2GI⊥ where I‖ and I⊥ are the intensity of fluorescence in parallel and perpendicular directions, to the plane of polarization of the excitation wave, respectively. G is an apparatus constant that depends on the emission wavelength.
as §3

[10] = DPH fluorescence quenching, dissociation constant with MM liposome membrane; format: binding; settings: 37 °C
Description: as §1, §4, §3

COc1cc(-c2[o+]c3cc(O)cc(O)c3cc2OC2OC(CO)C(O)C(O)C2O)ccc1O (stereo not shown) [Pn 3-glc, Peonidin 3-O-glucoside]
Changes in MC540 fluorescence intensity relative to the control ([1]; 1 µM): 16.40±0.66%
Changes in MC540 fluorescence intensity relative to the control ([1]; 5 µM): 20.98±1.80%
Changes in MC540 fluorescence intensity relative to the control ([1]; 10 µM): 29.53±2.47%
Changes in MC540 fluorescence intensity relative to the control ([1]; 20 µM): 38.00±0.57%
Changes in MC540 fluorescence intensity relative to the control ([1]; 30 µM): 50.34±2.93%
Changes in TMA-DPH anisotropy relative to the control ([2]; 1 µM): -3.26±0.11%
Changes in TMA-DPH anisotropy relative to the control ([2]; 5 µM): -0.96±0.03%
Changes in TMA-DPH anisotropy relative to the control ([2]; 10 µM): 0.69±0.02%
Changes in TMA-DPH anisotropy relative to the control ([2]; 20 µM): 0.19±0.003%
Changes in TMA-DPH anisotropy relative to the control ([2]; 30 µM): 1.63±0.05%
Stern Volmer constant KSV [3]: 11.93 ± 1.61 × 10^3 M^−1
number of binding sites n [3]: 0.91 ± 0.09
Kd [4]: 28.2 ± 5.11 µM
Changes in MC540 fluorescence intensity relative to the control ([5]; 1 µM): 6.40±0.34%
Changes in MC540 fluorescence intensity relative to the control ([5]; 5 µM): 10.52±0.67%
Changes in MC540 fluorescence intensity relative to the control ([5]; 10 µM): 14.98±0.94%
Changes in MC540 fluorescence intensity relative to the control ([5]; 20 µM): 24.13±1.45%
Changes in MC540 fluorescence intensity relative to the control ([5]; 30 µM): 35.68±1.88%
lifetime (LT) ([6]; 0 < comp/bp < 1, decrease from 4.25 ns): about 3.25 ns
lifetime (LT) ([6]; comp/bp from 1 to 10, minor further decrease): about 2.75 ns
decrease in the diffusion time (tD) ([6]; tested range of comp/bp from 0 to 10): 2.5 fold
Changes in DPH anisotropy relative to the control ([7]; 1 µM): -5.23±0.04%
Changes in DPH anisotropy relative to the control ([7]; 5 µM): -2.72±0.08%
Changes in DPH anisotropy relative to the control ([7]; 10 µM): -2.02±0.05%
Changes in DPH anisotropy relative to the control ([7]; 20 µM): -0.79±0.03%
Changes in DPH anisotropy relative to the control ([7]; 30 µM): -0.03±0.002%
Changes in DPH anisotropy relative to the control ([8]; 1 µM): -7.68±0.11%
Changes in DPH anisotropy relative to the control ([8]; 5 µM): -6.50±0.15%
Changes in DPH anisotropy relative to the control ([8]; 10 µM): -6.27±0.08%
Changes in DPH anisotropy relative to the control ([8]; 20 µM): -3.12±0.03%
Changes in DPH anisotropy relative to the control ([8]; 30 µM): -0.39±0.01%
Changes in TMA-DPH anisotropy relative to the control ([9]; 1 µM): -2.75±0.12%
Changes in TMA-DPH anisotropy relative to the control ([9]; 5 µM): -0.59±0.03%
Changes in TMA-DPH anisotropy relative to the control ([9]; 10 µM): -0.56±0.02%
Changes in TMA-DPH anisotropy relative to the control ([9]; 20 µM): -0.61±0.03%
Changes in TMA-DPH anisotropy relative to the control ([9]; 30 µM): 0.65±0.04%
Kd [10]: 114 ± 17.2 µM
